Source: ChEMBL document CHEMBL1201862, “PubChem BioAssay data set” (2004)
Counter-ions that a name gives are not always drawn.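 These data come from cells grown in 96-well plates and exposed to compound for 48 hours at five concentrations. Here, GI50 denotes the concentration required for 50% inhibition of growth.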 Active and inactive are the calls of the source. Rule as the data show it: active = GI50 up to about 1.1 µM and inactive = higher.

Experiments:
Test in all cases: growth of human tumour cells (NCI), 48 h
786-0 = system: 786-0
A498 = system: A498
A549 = system: A549
ACHN = system: ACHN
BT-549 = system: BT-549
CAKI-1 = system: CAKI-1
CCRF-CEM = system: CCRF-CEM
COLO 205 = system: COLO 205
DU-145 = system: DU-145
EKVX = system: EKVX
HCT-116 = system: HCT-116
HCT-15 = system: HCT-15
HL-60 = system: HL-60
HOP-62 = system: HOP-62
HOP-92 = system: HOP-92
HT-29 = system: HT-29
Hs-578T = system: Hs-578T
IGROV-1 = system: IGROV-1
K562 = system: K562
KM12 = system: KM12
LOX IMVI = system: LOX IMVI
M14 = system: M14
MCF7 = system: MCF7
MDA-MB-231 = system: MDA-MB-231
MDA-MB-435 = system: MDA-MB-435
MDA-N = system: MDA-N
MOLT-4 = system: MOLT-4
Malme-3M = system: Malme-3M
NCI-H226 = system: NCI-H226
NCI-H23 = system: NCI-H23
NCI-H522 = system: NCI-H522
NCI/ADR-RES = system: NCI/ADR-RES
OVCAR-3 = system: OVCAR-3
OVCAR-4 = system: OVCAR-4
OVCAR-5 = system: OVCAR-5
OVCAR-8 = system: OVCAR-8
PC-3 = system: PC-3
RPMI-8226 = system: RPMI-8226
RXF 393 = system: RXF 393
SF-268 = system: SF-268
SF-295 = system: SF-295
SK-MEL-28 = system: SK-MEL-28
SK-MEL-2 = system: SK-MEL-2
SK-MEL-5 = system: SK-MEL-5
SK-OV-3 = system: SK-OV-3
SN12C = system: SN12C
SNB-19 = system: SNB-19
SNB-75 = system: SNB-75
SR = system: SR
SW-620 = system: SW-620
T47D = system: T47D
TK-10 = system: TK-10
U-251 = system: U-251
UACC-257 = system: UACC-257
UACC-62 = system: UACC-62
UO-31 = system: UO-31
NCI-H460 = system: NCI-H460
SF-539 = system: SF-539

Measured: GI50

CN1[C@@H]2CC[C@H]1C[C@@H](OC(c1ccccc1)c1ccccc1)C2 [BENZTROPINE MESYLATE]
22.5 µM: HCT-15
inactive: 786-0 14 µM | A498 14 µM | A549 16.9 µM | ACHN 19.7 µM | BT-549 19.1 µM | CAKI-1 23.6 µM | CCRF-CEM 14 µM | COLO 205 11.3 µM | DU-145 26.9 µM | EKVX 31.6 µM | HCT-116 12.6 µM | HL-60 18.2 µM | HOP-62 15.6 µM | HOP-92 12.4 µM | HT-29 11 µM | Hs-578T 13.1 µM | IGROV-1 17 µM | K562 13.1 µM | KM12 17.2 µM | LOX IMVI 16 µM | M14 14.7 µM | MCF7 13.9 µM | MDA-MB-231 17.5 µM | MDA-MB-435 13.9 µM | MDA-N 15.1 µM | MOLT-4 21 µM | Malme-3M 14.9 µM | NCI-H226 27.5 µM | NCI-H23 27.3 µM | NCI-H522 14.9 µM | NCI/ADR-RES 16.2 µM | OVCAR-3 15.9 µM | OVCAR-4 25.5 µM | OVCAR-5 18.4 µM | OVCAR-8 16.4 µM | PC-3 16.6 µM | RPMI-8226 14.7 µM | RXF 393 15.5 µM | SF-268 18.5 µM | SF-295 11.4 µM | SK-MEL-28 14.7 µM | SK-MEL-2 17.1 µM | SK-MEL-5 15.6 µM | SK-OV-3 17.9 µM | SN12C 27.9 µM | SNB-19 22 µM | SNB-75 17.3 µM | SR 19.5 µM | SW-620 14.5 µM | T47D 17.3 µM | TK-10 17.3 µM | U-251 15.5 µM | UACC-257 13.7 µM | UACC-62 16.8 µM | UO-31 15.3 µM

Cn1c(=O)c2nc(CSCc3ccccc3)[nH]c2n(C)c1=O
> 100 µM: HCT-15
inactive: 786-0 > 100 µM | A498 > 100 µM | A549 45.6 µM | ACHN > 100 µM | BT-549 > 100 µM | CAKI-1 > 100 µM | COLO 205 > 100 µM | DU-145 > 100 µM | EKVX 24.8 µM | HCT-116 > 100 µM | HOP-62 > 100 µM | HOP-92 > 100 µM | HT-29 71.4 µM | Hs-578T > 100 µM | IGROV-1 > 100 µM | K562 78 µM | KM12 > 100 µM | LOX IMVI > 100 µM | M14 > 100 µM | MCF7 > 100 µM | MDA-MB-231 > 100 µM | MDA-MB-435 > 100 µM | MDA-N > 100 µM | MOLT-4 > 100 µM | Malme-3M > 100 µM | NCI-H226 > 100 µM | NCI-H23 > 100 µM | NCI-H460 > 100 µM | NCI-H522 35.6 µM | NCI/ADR-RES > 100 µM | OVCAR-3 > 100 µM | OVCAR-4 > 100 µM | OVCAR-5 > 100 µM | OVCAR-8 > 100 µM | PC-3 > 100 µM | RPMI-8226 67.6 µM | RXF 393 > 100 µM | SF-268 > 100 µM | SF-295 85.7 µM | SF-539 > 100 µM | SK-MEL-28 > 100 µM | SK-MEL-2 > 100 µM | SK-MEL-5 71.6 µM | SK-OV-3 > 100 µM | SN12C 80.5 µM | SNB-19 > 100 µM | SNB-75 > 100 µM | SR > 100 µM | T47D > 100 µM | TK-10 > 100 µM | U-251 > 100 µM | UACC-257 > 100 µM | UACC-62 > 100 µM | UO-31 41.1 µM
